Values quoted from earlier work, collected in paper doi:10.1101/2025.04.01.646723v2 (bioRxiv, 2025).

System: N. benthamiana leaves
Conditions: DCIP, 100 μM, at least 5 biological replicates, ref [15]

## nona-arginine [R9]
  cellular internalization (in words): efficiently internalized
